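Briefly, cells in 96-well plates were exposed to five compound concentrations for 48 h, and endpoints were estimated by linear interpolation. TGI denotes the concentration required for complete inhibition of growth.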
How the values were obtained:
Assay in all cases: DTP human tumour cell line panel, 48 h
DU-145 prostate = test system: DU-145 prostate
HCT-15 colon = test system: HCT-15 colon
KM12 colon = test system: KM12 colon
MCF7 breast = test system: MCF7 breast
MDA-N = test system: MDA-N
NCI-H226 lung = test system: NCI-H226 lung
NCI-H460 lung = test system: NCI-H460 lung
NCI-H522 lung = test system: NCI-H522 lung
OVCAR-5 ovarian = test system: OVCAR-5 ovarian
SK-MEL-5 melanoma = test system: SK-MEL-5 melanoma

| Compound | TGI (DU-145 prostate) [µM] | TGI (HCT-15 colon) [µM] | TGI (KM12 colon) [µM] | TGI (MCF7 breast) [µM] | TGI (MDA-N) [µM] | TGI (NCI-H226 lung) [µM] | TGI (NCI-H460 lung) [µM] | TGI (NCI-H522 lung) [µM] | TGI (OVCAR-5 ovarian) [µM] | TGI (SK-MEL-5 melanoma) [µM] |
| --- | --- | --- | --- | --- | --- | --- | --- | --- | --- | --- |
| Cc1ccc2c(=O)c(C(=O)N(CCO)CCO)c[nH]c2n1 | > 100 | > 100 | > 100 | > 100 | > 100 | > 100 | > 100 | > 100 | > 100 | > 100 |
| COC(=O)C1=C(C)NC2(C)OC(C)(O)C(C(C)=O)C12C(C)=O (stereo not given) | > 100 | > 100 | > 100 | > 100 | > 100 | 53.1 | > 100 | > 100 | > 100 | > 100 |
| CC(C)CC(NC(=O)C(COc1ccc([N+](=O)[O-])cc1)Cc1ccccc1)C(=O)Nc1ccccc1 (stereo not given) | > 100 | > 100 | 21.5 | > 100 | > 100 | 16.1 | 13.2 | 55.2 | > 100 | > 100 |
| CC(C)c1nccn1Cc1ccc(Cl)cc1Cl | > 100 | > 100 | > 100 | > 100 | > 100 | 93.5 | > 100 | 97.9 | > 100 | 34.9 |
| COc1cc2c(cc1O)CC[C@@H]1C2CC[C@@]2(C)C1CC[C@@H]2O (stereo not given in full) | > 100 | 49 | 61.8 | > 100 | 0.574 | > 100 | > 72.7 | 6.87 | > 100 | 36.7 |
| Cc1ccc([N+](=O)[O-])cc1NC(=O)C(=O)C1CCC2=C(Sc3ccccc3N2)C1=O (stereo not given) | > 100 | > 100 | > 100 | > 100 | > 100 | > 100 | > 100 | > 100 | > 100 | > 100 |
| COc1ccc(NC(=S)NNC(=O)c2cc(-c3ccccc3)nc3ccccc23)cc1 | 45.4 | 33.7 | > 100 | 17 | 15.5 | 42.8 | 35.9 | 50.7 | 58.8 | 25.6 |
| CCOC(=O)CCC(C(=O)OCC)n1nnc2cc(Nc3c(C)[n+]([O-])c4ccc(Cl)cc4[n+]3[O-])ccc21 (stereo not given) | > 100 | > 100 | > 100 | 93 | > 100 | > 100 | > 100 | > 100 | > 100 | > 100 |
| CC1(C)O[C@@H](CP(c2cccc3ccccc23)c2cccc3ccccc23)[C@H](CP(c2cccc3ccccc23)c2cccc3ccccc23)O1 | > 100 | > 100 | > 100 | > 100 | > 100 | > 100 | > 100 | > 100 | > 100 | > 100 |
| Cc1cccc2c1C(=O)[C@@](C)([C@]1(C)Nc3cccc(C)c3C1=O)N2 | > 100 | > 100 | > 100 | > 100 | > 100 | > 100 | > 100 | > 100 | > 100 | > 100 |
| N#Cc1c(-c2ccc(Cl)cc2)cc(-c2nc3ccccc3[nH]2)nc1N | 20.2 | 36.3 | 25.1 | 20.1 | 23.7 | 28 | 21.6 | 35.1 | 43.4 | 20.6 |
| Nc1ccc(-c2nc3ccccc3s2)cc1 | 31.6 | 40.4 | 47.6 | 39.4 | 35.2 | 49 | 43.1 | 40.1 | 36.5 | 50.1 |
| Oc1ccc2ccccc2c1OCc1nnc(CCCCCCCCc2nnc(COc3c(O)ccc4ccccc34)o2)o1 | > 100 | > 100 | > 100 | > 100 | > 100 | > 100 | > 100 | > 100 | > 100 | > 100 |
| Cc1nnc2sc(-c3ccc([N+](=O)[O-])o3)nn12 | 29.8 | 18.2 | 33.5 | 26.5 | 19.4 | 34.5 | 49.4 | 14.3 | 36.7 | 24.4 |
| CSc1ccccc1P(CCP(c1ccccc1SC)c1ccccc1SC)c1ccccc1SC | > 100 | > 100 | > 100 | > 100 | > 100 | > 45.2 | > 80.1 | > 100 | > 100 | > 70.1 |
| OC(O)(C(F)(F)F)C(F)(F)F | > 100 | > 100 | > 100 | > 100 | > 100 | > 100 | > 100 | > 100 | > 100 | > 100 |

| Compound | TGI (DU-145 prostate) [µM] | TGI (HCT-15 colon) [µM] | TGI (KM12 colon) [µM] | TGI (MCF7 breast) [µM] | TGI (MDA-N) [µM] | TGI (NCI-H226 lung) [µM] | TGI (NCI-H460 lung) [µM] | TGI (NCI-H522 lung) [µM] | TGI (OVCAR-5 ovarian) [µM] | TGI (SK-MEL-5 melanoma) [µM] |
| --- | --- | --- | --- | --- | --- | --- | --- | --- | --- | --- |
| O=C(NCc1cccnc1)C(=O)NCc1cccnc1 | > 100 | > 100 | > 100 | > 100 | > 100 | > 100 | > 100 | > 100 | > 100 | > 100 |
| O=c1/c(=C/c2ccc(-c3ccc(Cl)cc3Cl)o2)sc2n1[C@@H](c1ccc3c(c1)OCO3)C=C(c1cc(F)c(Cl)cc1Cl)N=2 | > 100 | > 100 | > 100 | > 100 | > 100 | > 100 | > 100 | > 100 | > 100 | > 100 |
| Cn1c(=O)c2sc3cc4c(cc3c2c2ccccc21)sc1c(=O)n(C)c2ccccc2c14 | > 100 | > 100 | > 100 | > 100 | > 100 | > 100 | > 100 | > 100 | > 100 | > 100 |
| COC(=O)C[C@H](CCSC)NC(=O)C[C@H](CCSC)NC(=O)C[C@H](CCSC)NC(=O)OC(C)(C)C | > 100 | > 100 | > 100 | > 100 | > 100 | > 100 | > 100 | > 100 | > 100 | > 100 |
| COc1ccc(N2C(=O)/C(=C/c3ccc(N(CCC#N)CCC#N)cc3)N=C2c2ccccc2)c(OC)c1 | > 100 | > 100 | > 100 | > 100 | > 100 | > 100 | > 100 | 74.1 | > 100 | > 100 |
| COc1ccc(C2NC(=O)Nc3c2c(=O)oc2c3ccc3ccccc32)cc1 (stereo not given) | > 100 | > 100 | > 100 | > 100 | > 100 | 96.9 | > 100 | > 100 | > 100 | > 100 |
| CCCCCCCCC[n+]1cccc(C2C(C(=O)OCC)=C(C)NC(C)=C2C(=O)OCC)c1 | 25.9 | 32.7 | 4.21 | 6.74 | 4.39 | 28.7 | 19.3 | 9.8 | 24.6 | 3.8 |
| Cn1c(=O)c2[nH]c(CCC(=O)O)nc2n(C)c1=O | > 100 | > 100 | > 100 | > 100 | > 100 | > 100 | > 100 | > 100 | > 100 | > 100 |
| O=c1c(-c2ccc(O)cc2)coc2cc(O)cc(O)c12 | > 100 | > 100 | > 100 | > 100 | > 100 | > 100 | > 100 | > 100 | > 100 | > 100 |
| COC1=CC(=O)c2c(cc(COP(=O)(N(C)CCBr)N(C)CCBr)n2C)C1=O | 19.5 | 2.28 | 24.1 | 8.42 | 2.77 | 1.43 | 9.44 | 2.15 | 4.35 | 2.33 |
| O=C(Nc1nc(C23CC4CC(CC(C4)C2)C3)cs1)c1cc2cc([N+](=O)[O-])ccc2oc1=O | > 100 | > 100 | > 100 | > 100 | > 100 | > 100 | > 100 | > 100 | > 100 | 96.9 |
| O=C(NCc1ccccc1)c1c(O)c2ccccc2[nH]c1=O | > 100 | > 100 | > 100 | > 100 | > 100 | > 100 | > 100 | > 100 | > 100 | > 100 |
| COC(=O)c1c(C#C[Si](C)(C)C)c(C#C[Si](C)(C)C)c(C#C[Si](C)(C)C)c(C#C[Si](C)(C)C)c1C(=O)OC | > 100 | > 100 | > 100 | > 100 | > 100 | > 100 | > 100 | > 100 | > 100 | > 100 |
| c1ccc2c(c1)c1c3n2-c2cc(on2)C3CCC1 (stereo not given) | > 100 | > 100 | > 100 | > 100 | > 100 | > 100 | > 100 | > 100 | > 100 | > 100 |
| C=C1C(=O)O[C@H]2C/C(C=O)=C\[C@H]3O[C@H]3/C(COC(=O)C(C)C)=C/CC12 (stereo not given in full) | 25.2 | 9.43 | 22.7 | 50 | 13.4 | 51.1 | 26.8 | 10.5 | 7.48 | 22.2 |

— PubChem BioAssay (NCI)
